Laboratory results from paper PMC4505863 (ACS Chemical Neuroscience, 2014).
Entries after “also recorded” stand apart in the source; their conditions may differ.

Experiments:
mice = details: cited from earlier work; for doses producing the head twitch in mice: 34−36; for active dose range, head twitch: ref 36−38
r5-HT2C = target: T1, r5-HT2C (Rattus norvegicus, UniProt P08909); test: Ca2+ mobilization assay; type: cell-based; details: for Emax: read-out: r5-HT2C Emax
T1 sequence (P08909 33-460): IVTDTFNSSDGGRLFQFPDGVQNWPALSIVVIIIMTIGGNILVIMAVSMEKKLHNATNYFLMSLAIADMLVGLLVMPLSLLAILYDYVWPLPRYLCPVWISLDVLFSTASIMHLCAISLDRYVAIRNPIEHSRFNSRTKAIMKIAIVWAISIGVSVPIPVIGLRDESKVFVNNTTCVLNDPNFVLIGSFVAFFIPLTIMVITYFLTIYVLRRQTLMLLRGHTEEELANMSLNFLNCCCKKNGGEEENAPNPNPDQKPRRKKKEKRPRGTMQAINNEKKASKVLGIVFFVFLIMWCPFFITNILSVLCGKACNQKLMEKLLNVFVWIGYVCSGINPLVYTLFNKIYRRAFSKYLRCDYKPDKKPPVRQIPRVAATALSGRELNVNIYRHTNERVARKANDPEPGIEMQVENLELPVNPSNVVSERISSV

h5-HT2C = target: T2, h5-HT2C (Homo sapiens, UniProt P28335); test: Ca2+ mobilization assay; type: cell-based; details: for Emax: HEK293, read-out: h5HT2C Emax
T2 sequence (P28335 33-458): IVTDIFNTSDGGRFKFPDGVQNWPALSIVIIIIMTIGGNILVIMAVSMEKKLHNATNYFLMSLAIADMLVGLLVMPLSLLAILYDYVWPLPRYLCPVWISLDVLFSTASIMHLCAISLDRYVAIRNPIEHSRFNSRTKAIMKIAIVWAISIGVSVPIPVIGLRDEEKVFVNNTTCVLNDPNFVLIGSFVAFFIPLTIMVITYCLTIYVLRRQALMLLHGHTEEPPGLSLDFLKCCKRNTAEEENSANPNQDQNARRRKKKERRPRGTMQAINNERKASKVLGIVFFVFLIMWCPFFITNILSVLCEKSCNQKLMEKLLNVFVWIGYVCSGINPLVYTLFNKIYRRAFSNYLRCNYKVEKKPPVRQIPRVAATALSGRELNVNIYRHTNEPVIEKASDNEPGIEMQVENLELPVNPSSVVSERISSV

5-HT2A receptor [1] = target: T3, 5-HT2A receptor (Homo sapiens, UniProt P28223); test: h5-HT2A affinity, agonist radioligand [125I]DOI; type: binding
T3 sequence (P28223 whole entry): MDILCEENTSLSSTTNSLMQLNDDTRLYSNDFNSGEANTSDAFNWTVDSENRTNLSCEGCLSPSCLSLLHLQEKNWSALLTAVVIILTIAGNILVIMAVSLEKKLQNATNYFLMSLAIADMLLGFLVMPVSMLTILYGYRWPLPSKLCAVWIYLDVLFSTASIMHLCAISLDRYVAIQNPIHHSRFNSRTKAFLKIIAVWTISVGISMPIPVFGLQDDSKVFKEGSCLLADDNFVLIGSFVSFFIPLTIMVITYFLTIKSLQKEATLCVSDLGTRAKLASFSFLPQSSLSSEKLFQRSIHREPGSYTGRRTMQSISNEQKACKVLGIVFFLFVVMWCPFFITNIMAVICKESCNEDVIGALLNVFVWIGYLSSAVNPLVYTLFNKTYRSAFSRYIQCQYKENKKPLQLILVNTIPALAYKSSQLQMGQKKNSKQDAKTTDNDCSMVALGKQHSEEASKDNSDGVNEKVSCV

5-HT3 = target: T4, 5-HT3 (Homo sapiens, UniProt P46098); test: PDSP screening affinity 5-HT3; type: binding
T4 sequence (P46098 24-478): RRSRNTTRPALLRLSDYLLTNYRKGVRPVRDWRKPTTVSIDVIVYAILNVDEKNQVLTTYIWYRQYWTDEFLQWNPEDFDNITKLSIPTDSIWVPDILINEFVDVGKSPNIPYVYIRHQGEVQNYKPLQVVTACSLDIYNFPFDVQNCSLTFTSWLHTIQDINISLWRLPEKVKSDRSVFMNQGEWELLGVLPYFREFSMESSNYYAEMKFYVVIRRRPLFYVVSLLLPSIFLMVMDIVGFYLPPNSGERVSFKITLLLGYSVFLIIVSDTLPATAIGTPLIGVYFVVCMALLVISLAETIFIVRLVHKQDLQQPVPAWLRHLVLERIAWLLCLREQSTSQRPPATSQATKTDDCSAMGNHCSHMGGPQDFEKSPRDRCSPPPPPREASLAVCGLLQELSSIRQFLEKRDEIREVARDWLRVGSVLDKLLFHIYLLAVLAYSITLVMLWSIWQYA

human 5-HT2C receptor [2] = target: T5, human 5-HT2C receptor (Homo sapiens, UniProt P28335); test: h5-HT2C affinity, antagonist radioligand [3H]mesulergine; type: binding
T5 sequence (P28335 33-458): T2 sequence (P28335 33-458)

5-HT2B = 5-HT2B (Homo sapiens, UniProt P41595); test: PDSP screening affinity 5-HT2B; type: binding
Sequence of 5-HT2B (P41595 whole entry): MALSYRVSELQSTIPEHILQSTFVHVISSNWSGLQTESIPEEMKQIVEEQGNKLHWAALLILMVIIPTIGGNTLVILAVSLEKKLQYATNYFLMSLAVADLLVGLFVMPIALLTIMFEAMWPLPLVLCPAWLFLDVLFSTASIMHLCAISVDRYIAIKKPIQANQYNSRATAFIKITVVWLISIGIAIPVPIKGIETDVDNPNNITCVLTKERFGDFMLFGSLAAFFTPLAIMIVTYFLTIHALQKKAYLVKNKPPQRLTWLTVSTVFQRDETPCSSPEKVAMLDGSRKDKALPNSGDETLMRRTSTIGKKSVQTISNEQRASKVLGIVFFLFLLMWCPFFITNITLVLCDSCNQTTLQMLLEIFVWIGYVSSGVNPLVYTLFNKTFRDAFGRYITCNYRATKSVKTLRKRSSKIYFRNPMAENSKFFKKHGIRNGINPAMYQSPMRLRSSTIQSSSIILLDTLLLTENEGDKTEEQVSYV

h5-HT2A = h5-HT2A (Homo sapiens, UniProt P28223); test: Ca2+ mobilization assay; type: cell-based; details: for Emax: HEK293, read-out: h5-HT2A Emax, percentage of the maximum response to 5-HT
Sequence of h5-HT2A (P28223 whole entry): as the sequence (P28223 whole entry) above

r5-HT2A = r5-HT2A (Rattus norvegicus, UniProt P14842); test: Ca2+ mobilization assay; type: cell-based; details: for Emax: read-out: r5-HT2A Emax, percentage of the maximum response to 5-HT
Sequence of r5-HT2A (P14842 whole entry): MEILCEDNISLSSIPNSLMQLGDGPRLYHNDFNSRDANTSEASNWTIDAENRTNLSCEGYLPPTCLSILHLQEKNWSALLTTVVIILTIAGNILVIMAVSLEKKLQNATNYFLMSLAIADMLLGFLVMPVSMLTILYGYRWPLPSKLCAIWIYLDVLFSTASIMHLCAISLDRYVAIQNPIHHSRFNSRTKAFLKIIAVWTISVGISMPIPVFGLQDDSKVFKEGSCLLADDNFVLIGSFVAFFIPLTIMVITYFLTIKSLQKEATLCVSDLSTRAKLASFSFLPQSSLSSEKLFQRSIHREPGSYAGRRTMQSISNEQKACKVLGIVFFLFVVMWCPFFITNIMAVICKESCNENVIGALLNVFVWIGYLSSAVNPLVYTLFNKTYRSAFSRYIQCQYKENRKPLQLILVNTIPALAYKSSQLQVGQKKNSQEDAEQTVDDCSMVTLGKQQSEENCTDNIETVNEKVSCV

5-HT2A receptor [3] = target: T3, 5-HT2A receptor; test: h5-HT2A affinity, antagonist radioligand [3H]ketanserin; type: binding
5-HT1A = target: T6, 5-HT1A (Homo sapiens, UniProt P08908); test: PDSP screening affinity 5-HT1A; type: binding; details: 5-HT1A affinity
T6 sequence (P08908 1-422): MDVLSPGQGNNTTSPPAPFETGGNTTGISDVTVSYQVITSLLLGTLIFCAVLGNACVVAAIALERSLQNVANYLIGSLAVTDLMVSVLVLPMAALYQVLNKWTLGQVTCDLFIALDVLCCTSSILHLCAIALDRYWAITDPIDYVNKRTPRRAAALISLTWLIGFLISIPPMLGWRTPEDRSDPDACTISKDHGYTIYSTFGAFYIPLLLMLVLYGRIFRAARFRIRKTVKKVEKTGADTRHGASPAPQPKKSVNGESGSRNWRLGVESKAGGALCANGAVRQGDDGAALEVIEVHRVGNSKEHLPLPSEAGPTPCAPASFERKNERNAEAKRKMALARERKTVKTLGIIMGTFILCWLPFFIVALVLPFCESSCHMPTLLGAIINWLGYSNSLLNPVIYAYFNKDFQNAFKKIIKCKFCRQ

Male C57BL/6J mice = test: Mouse head twitch response; details: for activity in the HTR assay (active / inactive) / max counts / magnitude of peak effect × vehicle / maximally effective dose: SC; for activity in the HTR assay (active / inactive): doses up to 30 mg/kg; for max counts: HTR counts; for ED50: Mus musculus, sc, read-out: ED50 mg/kg (95% CI), mouse head twitch; for magnitude of peak effect × vehicle / maximally effective dose: mouse head twitch
5-HT6 = 5-HT6 (Homo sapiens, UniProt P50406); test: PDSP screening affinity 5-HT6; type: binding; details: 5-HT6 affinity
Sequence of 5-HT6 (P50406 whole entry): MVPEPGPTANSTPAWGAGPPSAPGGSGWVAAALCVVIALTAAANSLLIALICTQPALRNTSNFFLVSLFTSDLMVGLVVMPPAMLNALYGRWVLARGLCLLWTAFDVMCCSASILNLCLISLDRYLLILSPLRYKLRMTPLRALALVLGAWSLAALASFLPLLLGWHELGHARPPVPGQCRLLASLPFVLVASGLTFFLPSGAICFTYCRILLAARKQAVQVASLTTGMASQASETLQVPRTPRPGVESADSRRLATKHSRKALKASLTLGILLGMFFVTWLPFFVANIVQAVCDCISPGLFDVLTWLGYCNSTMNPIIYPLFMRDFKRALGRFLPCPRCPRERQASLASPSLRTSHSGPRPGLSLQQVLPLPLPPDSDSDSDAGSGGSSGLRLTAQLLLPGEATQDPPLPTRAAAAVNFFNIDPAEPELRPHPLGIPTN

5-HT7 = 5-HT7 (Homo sapiens, UniProt P34969); test: PDSP screening affinity 5-HT7; type: binding; details: 5-HT7 affinity
Sequence of 5-HT7 (P34969 whole entry): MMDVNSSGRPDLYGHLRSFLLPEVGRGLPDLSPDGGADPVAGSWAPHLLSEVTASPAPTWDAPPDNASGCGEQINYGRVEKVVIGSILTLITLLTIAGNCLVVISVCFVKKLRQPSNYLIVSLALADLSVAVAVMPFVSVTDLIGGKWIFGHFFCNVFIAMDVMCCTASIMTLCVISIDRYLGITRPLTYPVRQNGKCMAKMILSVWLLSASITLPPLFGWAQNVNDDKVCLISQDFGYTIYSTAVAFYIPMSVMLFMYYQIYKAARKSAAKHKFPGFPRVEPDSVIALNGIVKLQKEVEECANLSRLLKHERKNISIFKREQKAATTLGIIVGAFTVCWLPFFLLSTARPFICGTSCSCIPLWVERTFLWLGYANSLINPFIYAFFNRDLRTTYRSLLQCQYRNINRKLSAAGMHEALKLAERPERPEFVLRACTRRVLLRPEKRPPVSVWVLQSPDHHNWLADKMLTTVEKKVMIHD

5-HT1B = 5-HT1B (Homo sapiens, UniProt P28222); test: PDSP screening affinity 5-HT1B; type: binding
Sequence of 5-HT1B (P28222 whole entry): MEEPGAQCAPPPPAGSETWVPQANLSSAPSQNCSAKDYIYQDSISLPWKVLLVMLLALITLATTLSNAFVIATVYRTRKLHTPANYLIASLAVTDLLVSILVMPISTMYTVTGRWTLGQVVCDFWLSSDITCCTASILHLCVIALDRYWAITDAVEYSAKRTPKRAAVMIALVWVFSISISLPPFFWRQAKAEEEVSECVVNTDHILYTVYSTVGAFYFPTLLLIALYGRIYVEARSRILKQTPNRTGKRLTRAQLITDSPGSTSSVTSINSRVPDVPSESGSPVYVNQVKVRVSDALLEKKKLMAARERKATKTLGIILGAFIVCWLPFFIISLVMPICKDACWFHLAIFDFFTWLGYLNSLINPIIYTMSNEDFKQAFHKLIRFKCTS

5-ht1e = 5-ht1e (Homo sapiens, UniProt P28566); test: PDSP screening affinity 5-ht1e; type: binding
Sequence of 5-ht1e (P28566 whole entry): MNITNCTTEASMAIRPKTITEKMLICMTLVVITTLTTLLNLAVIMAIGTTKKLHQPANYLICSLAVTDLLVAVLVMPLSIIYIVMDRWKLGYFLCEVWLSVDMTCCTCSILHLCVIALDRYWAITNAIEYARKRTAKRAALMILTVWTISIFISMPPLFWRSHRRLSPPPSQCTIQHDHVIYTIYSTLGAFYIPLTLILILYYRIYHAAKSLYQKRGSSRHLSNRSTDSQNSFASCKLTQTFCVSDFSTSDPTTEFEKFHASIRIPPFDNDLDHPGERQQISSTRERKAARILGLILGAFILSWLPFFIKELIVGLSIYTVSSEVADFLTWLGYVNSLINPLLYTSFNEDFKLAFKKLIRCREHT

h5-HT2B = h5-HT2B (Homo sapiens, UniProt P41595); test: Ca2+ mobilization assay; type: cell-based; details: for Emax: HEK293, read-out: h5-HT2B Emax
Sequence of h5-HT2B (P41595 whole entry): as the sequence (P41595 whole entry) above

5-ht5a = 5-ht5a (Homo sapiens, UniProt P47898); test: PDSP screening affinity 5-ht5a; type: binding
Sequence of 5-ht5a (P47898 whole entry): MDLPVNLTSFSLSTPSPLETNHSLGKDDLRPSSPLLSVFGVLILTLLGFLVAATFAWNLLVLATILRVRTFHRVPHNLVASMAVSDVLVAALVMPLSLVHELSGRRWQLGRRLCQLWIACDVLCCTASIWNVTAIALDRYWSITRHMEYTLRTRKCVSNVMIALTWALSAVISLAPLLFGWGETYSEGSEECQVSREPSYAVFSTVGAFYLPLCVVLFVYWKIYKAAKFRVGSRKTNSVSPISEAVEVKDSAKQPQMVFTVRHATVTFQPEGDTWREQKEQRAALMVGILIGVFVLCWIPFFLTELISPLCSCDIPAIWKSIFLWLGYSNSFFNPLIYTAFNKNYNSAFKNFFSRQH

5-HT1D = 5-HT1D (Homo sapiens, UniProt P28221); test: PDSP screening affinity 5-HT1D; type: binding
Sequence of 5-HT1D (P28221 whole entry): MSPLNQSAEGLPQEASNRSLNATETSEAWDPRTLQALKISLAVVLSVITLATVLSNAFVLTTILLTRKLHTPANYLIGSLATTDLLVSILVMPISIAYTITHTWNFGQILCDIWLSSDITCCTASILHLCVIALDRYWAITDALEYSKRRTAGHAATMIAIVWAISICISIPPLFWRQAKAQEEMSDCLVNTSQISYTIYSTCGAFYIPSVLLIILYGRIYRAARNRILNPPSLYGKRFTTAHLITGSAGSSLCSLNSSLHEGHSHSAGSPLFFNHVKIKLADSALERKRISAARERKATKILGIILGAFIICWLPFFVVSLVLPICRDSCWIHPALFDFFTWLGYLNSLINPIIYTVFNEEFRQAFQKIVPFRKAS

human 5-HT2C receptor [4] = target: T5, human 5-HT2C receptor; test: h5-HT2C affinity, agonist radioligand [125I]DOI; type: binding
[5] = r5-HT2C EC50, Ca2+ mobilization
[6] = r5-HT2A EC50, Ca2+ mobilization
[7] = h5-HT2B EC50, Ca2+ mobilization

Structure (SMILES)	EC50 (r5-HT2C; [5]) [nM]	Emax (r5-HT2C) [%]	Emax (h5-HT2C) [%]	Ki (5-HT2A receptor [1]) [nM]	Ki (5-HT3) [nM]	Ki (human 5-HT2C receptor [2]) [nM]	EC50 (h5-HT2A) [nM]	Emax (h5-HT2A) [%]	EC50 (r5-HT2A; [6]) [nM]	Ki (5-HT2A receptor [3]) [nM]	Ki (5-HT1A) [nM]	Ki (5-HT6) [nM]	Ki (5-HT7) [nM]	Ki (5-HT1B; 5-HT1B affinity) [nM]	Ki (5-ht1e) [nM]	Emax (h5-HT2B) [%]	EC50 (h5-HT2B; [7]) [nM]	Ki (5-ht5a; 5-ht5a affinity) [nM]	Ki (5-HT1D) [nM]	Ki (human 5-HT2C receptor [4]) [nM]	also measured
COc1ccc2[nH]cc(CCN(C(C)C)C(C)C)c2c1 [5-MeO–DIPT, 5-MeO-N,N-diisopropyltryptamine]	–	–	–	–	–	–	–	–	–	–	–	–	–	–	–	–	–	–	–	–	doses producing the head twitch in mice (mice): ≤ 1 mg/kg
COc1ccc2[nH]cc(CCN(C)C)c2c1 [Compound 5-MeO-DMT, 5-MeO-N,N-dimethyltryptamine]	–	–	–	–	–	–	–	–	–	–	–	–	–	–	–	–	–	–	–	–	active dose range, head twitch (mice): 3 to 30 mg/kg
COc1cc(CCNCc2ccc(Br)cc2)c(OC)cc1I [Compound 4e, N-(4-Bromobenzyl)-2-(4-iodo-2,5-dimethoxyphenyl)ethan-1-amine]	290	105 ± 2	77 ± 5	3.24	2460	45.7	170	88 ± 1.4	150	52.5	649	350	641	5090	> 10000	90 ± 2	610	1850	311	3.31	EC50 (h5-HT2C; h5HT2C EC50, Ca2+ mobilization): 200 nM; EC50 (h5-HT2C; h5HT2C pEC50 ± SEM, Ca2+ mobilization): 219 nM; Ki (5-HT2B; 5-HT2B affinity): 68 nM; Emax (r5-HT2A): 67.3 ± 0.9%; activity in the HTR assay (active / inactive) (Male C57BL/6J mice): None of the phenethylamines or tryptamines with 4-substituted N-benzyl groups, 4b, 4e, 5c, or 5f, was active; Ki (5-HT1B; 5-HT1B pKi ± SEM): 6030 nM
COc1cc(C[C@@H](C)N)c(OC)cc1C [R-DOM, R-(−)-2,5-dimethoxy-4-methylamphetamine]	–	–	–	–	–	–	–	–	–	–	–	–	–	–	–	–	–	–	–	–	doses producing the head twitch in mice (mice): ≤ 1 mg/kg
COc1cc(CC(C)N)c(OC)cc1I (stereo not drawn) [DOI, 2,5-dimethoxy-4-iodoamphetamine]	–	–	–	–	–	–	–	–	–	–	–	–	–	–	–	–	–	–	–	–	doses producing the head twitch in mice (mice): ≤ 1 mg/kg
COc1cc(CCNCc2cccc(Br)c2)c(OC)cc1I [Compound 4d, N-(3-Bromobenzyl)-2-(4-iodo-2,5-dimethoxyphenyl)ethan-1-amine]	–	101 ± 2	74 ± 5	0.57	> 10000	7.59	17	87.5 ± 1.3	14	3.98	670	175	355	1570	792	90 ± 2	85	1010	162	1.62	EC50 (r5-HT2C; r5-HT2C pEC50 ± SEM, Ca2+ mobilization): 36.3 nM; Ki (5-HT2B; 5-HT2B pKi ± SEM): 12.9 nM; r5-HT2A Emax (r5-HT2A; percentage of the maximum response to 5-HT): 68.5 ± 0.9%; EC50 (r5-HT2A; r5-HT2A pEC50 ± SEM, Ca2+ mobilization): 15.8 nM; activity in the HTR assay (active / inactive) (Male C57BL/6J mice): inactive; EC50 (h5-HT2B; h5-HT2B pEC50 ± SEM, Ca2+ mobilization, NA = not active, Emax ≤ 15%): 89.1 nM; Ki (5-ht5a; 5-ht5a pKi ± SEM): 1000 nM
CC(N)Cc1c[nH]c2ccccc12 (stereo not drawn) [α-methyltryptamine]	–	–	–	–	–	–	–	–	–	–	–	–	–	–	–	–	–	–	–	–	active dose range, head twitch (mice): 3 to 30 mg/kg
COc1cccc(CNCCc2cc(OC)c(I)cc2OC)c1 [Compound 4a, N-(3-Methoxybenzyl)-2-(4-iodo-2,5-dimethoxyphenyl)ethan-1-amine]	133	91 ± 3	41 ± 6	0.269	> 10000	4.17	28	71.6 ± 0.9	27	1.55	925	67	583	3230	1710	≤ 15	38	57	439	0.126	EC50 (h5-HT2C; h5HT2C EC50, Ca2+ mobilization): 33.8 nM; Ki (5-HT2B; 5-HT2B affinity): 4.6 nM; Emax (r5-HT2A): 51.7 ± 0.9%; max counts (Male C57BL/6J mice): 11.4; ED50 (Male C57BL/6J mice): 4.34 mg/kg; activity in the HTR assay (active / inactive) (Male C57BL/6J mice): active; magnitude of peak effect × vehicle (Male C57BL/6J mice): 5.7 × vehicle; maximally effective dose (Male C57BL/6J mice): 30 mg/kg
COc1ccc2[nH]cc(CCNCc3cccc(Cl)c3)c2c1 [Compound 5h, N-(3-Chlorobenzyl)-2-(5-methoxy-1H-indol-3-yl)ethan-1-amine]	286	105 ± 2	85 ± 6	1.05	> 10000	28.2	14	81.2 ± 1.3	83	5.25	195	50	281	4390	> 10000	≤ 15	50	2310	282	4.27	EC50 (h5-HT2C; h5HT2C EC50, Ca2+ mobilization): 316 nM; Ki (5-HT2B; 5-HT2B affinity): 6.6 nM; Ki (5-HT2B; 5-HT2B pKi ± SEM): 6.92 nM; Emax (r5-HT2A): 70.1 ± 1%; max counts (Male C57BL/6J mice): 10.6; ED50 (Male C57BL/6J mice): 4.43 mg/kg; magnitude of peak effect × vehicle (Male C57BL/6J mice): 8.0 × vehicle; maximally effective dose (Male C57BL/6J mice): 30 mg/kg
COc1ccc2[nH]cc(CCNCc3ccccc3Br)c2c1 [Compound 5d, N-(2-Bromobenzyl)-2-(5-methoxy-1H-indol-3-yl)ethan-1-amine]	898	104 ± 3	94 ± 5	2.34	6170	100	30	74.7 ± 1.5	450	25.1	286	203	1090	> 10000	> 10000	≤ 15	168	> 10000	782	14.1	EC50 (h5-HT2C; h5HT2C EC50, Ca2+ mobilization): 439 nM; selectivity h5-HT2A versus h5-HT2C, affinity at the [125I]-DOI-labeled receptors (5-HT2A receptor [1]; agonist-labeled receptors): 6 fold; Ki (5-HT2B; 5-HT2B pKi ± SEM): 24 nM; Emax (r5-HT2A): 49.7 ± 1.2%; activity in the HTR assay (active / inactive) (Male C57BL/6J mice): failed to induce the HTR; also recorded: inactive
